Data: article PMC4685510, “A Cell Biologist’s Field Guide to Aurora Kinase Inhibitors” (Frontiers in Oncology, 2015)
“And” between values parts separate entries of the source, which are not always exact repeats. Identical values can stand only once. Like-named read-outs stand apart in the source and are kept apart here.

Assays:
Assay in all cases: biochemical
Assay type in all cases: biochemical
[1] = molecular target: 363 human kinases (including Aurora A/B/C) (Homo sapiens, UniProt P08069); conditions: IGF1R; for remaining activity at 0.1 µM: 100 nM; for remaining activity at 0.1 µM / remaining activity at 0.5 µM: read-out: % Enzyme Activity (relative to DMSO controls)
Text: (§1) However, the Aurora A/B selectivity ratios derived from our in vitro and in vivo data can be compared to prioritize inhibitors.

[2] = molecular target: 363 human kinases (including Aurora A/B/C) (Homo sapiens, UniProt P12931); conditions: c-Src, [ATP] 100 µM; for remaining activity at 0.1 µM: 100 nM; for remaining activity at 0.1 µM / remaining activity at 0.5 µM: read-out: % Enzyme Activity (relative to DMSO controls)
Text: as §1

[3] = molecular target: 363 human kinases (including Aurora A/B/C) (Homo sapiens, UniProt P22612); conditions: PKAcg; for remaining activity at 0.1 µM: 100 nM; for remaining activity at 0.1 µM / remaining activity at 0.5 µM: read-out: % Enzyme Activity (relative to DMSO controls)
Text: as §1

[4] = molecular target: 363 human kinases (including Aurora A/B/C) (Homo sapiens, UniProt P23443); conditions: p70S6K/RPS6KB1; for remaining activity at 0.1 µM: 100 nM; for remaining activity at 0.1 µM / remaining activity at 0.5 µM: read-out: % Enzyme Activity (relative to DMSO controls)
Text: as §1

[5] = molecular target: 363 human kinases (including Aurora A/B/C) (Homo sapiens, UniProt P45984); conditions: JNK2; for remaining activity at 0.1 µM: 100 nM; for remaining activity at 0.1 µM / remaining activity at 0.5 µM: read-out: % Enzyme Activity (relative to DMSO controls)
Text: as §1

[6] = molecular target: 363 human kinases (including Aurora A/B/C) (Homo sapiens, UniProt P51617); conditions: IRAK1; for remaining activity at 0.1 µM: 100 nM; for remaining activity at 0.1 µM / remaining activity at 0.5 µM: read-out: % Enzyme Activity (relative to DMSO controls)
Text: as §1

[7] = molecular target: T1, 363 human kinases (including Aurora A/B/C) (Homo sapiens, UniProt P51955); conditions: NEK2; for remaining activity at 0.1 µM: 100 nM; for remaining activity at 0.1 µM / remaining activity at 0.5 µM: read-out: % Enzyme Activity (relative to DMSO controls)
T1 sequence (P51955 1-445): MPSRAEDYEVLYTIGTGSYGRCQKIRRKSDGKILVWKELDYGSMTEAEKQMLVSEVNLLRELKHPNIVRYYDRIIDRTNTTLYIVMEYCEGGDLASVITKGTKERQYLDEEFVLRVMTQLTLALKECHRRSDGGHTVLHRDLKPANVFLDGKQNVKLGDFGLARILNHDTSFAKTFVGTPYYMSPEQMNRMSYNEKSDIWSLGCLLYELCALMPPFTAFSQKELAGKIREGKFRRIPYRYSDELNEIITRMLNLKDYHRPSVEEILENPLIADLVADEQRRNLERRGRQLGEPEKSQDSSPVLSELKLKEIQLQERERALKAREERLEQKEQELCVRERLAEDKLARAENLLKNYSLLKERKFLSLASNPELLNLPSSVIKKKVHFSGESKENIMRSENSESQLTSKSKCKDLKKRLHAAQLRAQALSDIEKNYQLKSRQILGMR
Text: as §1

[8] = molecular target: 363 human kinases (including Aurora A/B/C) (Homo sapiens, UniProt P80192); conditions: MLK1/MAP3K9; for remaining activity at 0.1 µM: 100 nM; for remaining activity at 0.1 µM / remaining activity at 0.5 µM: read-out: % Enzyme Activity (relative to DMSO controls)
Text: as §1

[9] = molecular target: 363 human kinases (including Aurora A/B/C) (Homo sapiens, UniProt Q13233); conditions: MEKK1; for remaining activity at 0.1 µM: 100 nM; for remaining activity at 0.1 µM / remaining activity at 0.5 µM: read-out: % Enzyme Activity (relative to DMSO controls)
Text: as §1

[10] = molecular target: 363 human kinases (including Aurora A/B/C) (Homo sapiens, UniProt Q16816); conditions: PHKg1; for remaining activity at 0.1 µM: 100 nM; for remaining activity at 0.1 µM / remaining activity at 0.5 µM: read-out: % Enzyme Activity (relative to DMSO controls)
Text: as §1

[11] = molecular target: 363 human kinases (including Aurora A/B/C) (Homo sapiens, UniProt Q5TCX8); conditions: MLK4; for remaining activity at 0.1 µM: 100 nM; for remaining activity at 0.1 µM / remaining activity at 0.5 µM: read-out: % Enzyme Activity (relative to DMSO controls)
Text: as §1

[12] = molecular target: 363 human kinases (including Aurora A/B/C) (Homo sapiens, UniProt Q86Y07); conditions: VRK2; for remaining activity at 0.1 µM: 100 nM; for remaining activity at 0.1 µM / remaining activity at 0.5 µM: read-out: % Enzyme Activity (relative to DMSO controls)
Text: as §1

[13] = molecular target: T2, 363 human kinases (including Aurora A/B/C) (Homo sapiens, UniProt Q96L34); conditions: MARK4; for remaining activity at 0.1 µM: 100 nM; for remaining activity at 0.1 µM / remaining activity at 0.5 µM: read-out: % Enzyme Activity (relative to DMSO controls)
T2 sequence (Q96L34 1-752): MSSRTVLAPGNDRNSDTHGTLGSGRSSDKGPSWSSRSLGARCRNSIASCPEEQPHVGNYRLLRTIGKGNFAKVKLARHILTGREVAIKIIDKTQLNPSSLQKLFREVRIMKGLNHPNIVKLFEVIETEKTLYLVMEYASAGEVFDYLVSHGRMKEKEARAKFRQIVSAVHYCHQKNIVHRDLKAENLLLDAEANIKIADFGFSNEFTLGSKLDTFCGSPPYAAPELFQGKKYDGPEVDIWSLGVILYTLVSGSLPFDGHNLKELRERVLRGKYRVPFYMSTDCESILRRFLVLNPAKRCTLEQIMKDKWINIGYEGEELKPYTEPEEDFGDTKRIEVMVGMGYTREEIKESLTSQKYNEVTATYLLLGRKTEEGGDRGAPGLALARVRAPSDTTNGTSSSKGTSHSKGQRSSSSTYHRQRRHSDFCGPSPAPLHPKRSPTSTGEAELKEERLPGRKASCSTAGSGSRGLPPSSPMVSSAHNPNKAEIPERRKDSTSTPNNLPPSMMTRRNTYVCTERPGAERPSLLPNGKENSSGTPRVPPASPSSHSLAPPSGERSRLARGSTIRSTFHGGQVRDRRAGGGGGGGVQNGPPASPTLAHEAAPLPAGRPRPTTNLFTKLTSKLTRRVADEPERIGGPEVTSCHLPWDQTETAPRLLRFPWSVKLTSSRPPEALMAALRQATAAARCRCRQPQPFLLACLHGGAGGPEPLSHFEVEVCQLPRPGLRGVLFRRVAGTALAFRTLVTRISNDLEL
Text: as §1

[14] = molecular target: 363 human kinases (including Aurora A/B/C) (Homo sapiens, UniProt Q9HAZ1); conditions: CLK4, [ATP] 100 µM; for remaining activity at 0.1 µM: 100 nM; for remaining activity at 0.1 µM / remaining activity at 0.5 µM: read-out: % Enzyme Activity (relative to DMSO controls)
Text: as §1

[15] = molecular target: 363 human kinases (including Aurora A/B/C) (Homo sapiens, UniProt Q9Y5S2); conditions: MRCKb/CDC42BPB; for remaining activity at 0.1 µM: 100 nM; for remaining activity at 0.1 µM / remaining activity at 0.5 µM: read-out: % Enzyme Activity (relative to DMSO controls)
Text: as §1

[16] = system: 363 human kinases (including Aurora A/B/C)
Text: as §1

Sequence of 363 human kinases (including Aurora A/B/C) (Homo sapiens, UniProt P12931) (P12931 whole entry): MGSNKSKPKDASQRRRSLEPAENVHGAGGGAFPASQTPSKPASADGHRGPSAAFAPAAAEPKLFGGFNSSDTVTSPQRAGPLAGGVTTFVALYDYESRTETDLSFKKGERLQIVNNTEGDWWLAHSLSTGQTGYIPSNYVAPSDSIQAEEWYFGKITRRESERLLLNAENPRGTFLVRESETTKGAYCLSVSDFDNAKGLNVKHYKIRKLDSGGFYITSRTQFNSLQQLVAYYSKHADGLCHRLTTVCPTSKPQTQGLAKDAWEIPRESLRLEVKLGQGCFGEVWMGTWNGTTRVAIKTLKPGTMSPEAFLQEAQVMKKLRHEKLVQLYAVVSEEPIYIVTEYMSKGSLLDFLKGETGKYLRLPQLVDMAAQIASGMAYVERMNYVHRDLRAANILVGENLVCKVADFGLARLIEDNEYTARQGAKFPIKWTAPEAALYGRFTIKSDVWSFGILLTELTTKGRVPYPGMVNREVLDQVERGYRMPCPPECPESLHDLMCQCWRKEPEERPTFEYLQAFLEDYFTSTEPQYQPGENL
Sequence of 363 human kinases (including Aurora A/B/C) (Homo sapiens, UniProt P80192) (P80192 whole entry): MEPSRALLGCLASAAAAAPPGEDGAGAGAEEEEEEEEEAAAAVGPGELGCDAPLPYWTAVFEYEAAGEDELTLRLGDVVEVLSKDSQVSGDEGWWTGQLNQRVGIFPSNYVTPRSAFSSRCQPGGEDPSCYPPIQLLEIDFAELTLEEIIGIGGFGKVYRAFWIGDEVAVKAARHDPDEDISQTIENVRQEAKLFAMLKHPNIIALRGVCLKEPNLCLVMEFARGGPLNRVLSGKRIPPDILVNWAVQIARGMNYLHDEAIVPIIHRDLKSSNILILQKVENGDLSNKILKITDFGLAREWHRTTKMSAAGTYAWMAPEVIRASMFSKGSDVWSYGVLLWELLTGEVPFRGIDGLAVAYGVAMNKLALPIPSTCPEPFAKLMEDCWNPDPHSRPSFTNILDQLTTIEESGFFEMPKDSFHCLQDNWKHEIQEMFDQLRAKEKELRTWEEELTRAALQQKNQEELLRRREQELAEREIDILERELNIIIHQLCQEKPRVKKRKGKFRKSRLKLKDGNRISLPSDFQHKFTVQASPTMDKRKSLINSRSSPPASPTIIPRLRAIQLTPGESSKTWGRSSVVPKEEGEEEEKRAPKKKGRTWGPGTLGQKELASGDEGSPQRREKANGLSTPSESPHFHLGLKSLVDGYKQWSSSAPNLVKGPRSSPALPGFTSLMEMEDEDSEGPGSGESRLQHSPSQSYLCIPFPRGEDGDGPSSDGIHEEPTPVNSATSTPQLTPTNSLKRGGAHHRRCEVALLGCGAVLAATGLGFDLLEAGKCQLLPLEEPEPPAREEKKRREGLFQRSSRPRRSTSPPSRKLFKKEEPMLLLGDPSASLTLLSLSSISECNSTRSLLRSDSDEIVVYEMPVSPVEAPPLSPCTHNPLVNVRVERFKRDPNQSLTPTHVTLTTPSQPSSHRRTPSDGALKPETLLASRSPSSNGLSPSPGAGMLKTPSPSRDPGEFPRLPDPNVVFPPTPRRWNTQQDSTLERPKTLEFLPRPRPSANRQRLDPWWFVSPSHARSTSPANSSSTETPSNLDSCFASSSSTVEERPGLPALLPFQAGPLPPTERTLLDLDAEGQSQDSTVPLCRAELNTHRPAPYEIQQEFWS
Sequence of 363 human kinases (including Aurora A/B/C) (Homo sapiens, UniProt P08069) (P08069 31-1367): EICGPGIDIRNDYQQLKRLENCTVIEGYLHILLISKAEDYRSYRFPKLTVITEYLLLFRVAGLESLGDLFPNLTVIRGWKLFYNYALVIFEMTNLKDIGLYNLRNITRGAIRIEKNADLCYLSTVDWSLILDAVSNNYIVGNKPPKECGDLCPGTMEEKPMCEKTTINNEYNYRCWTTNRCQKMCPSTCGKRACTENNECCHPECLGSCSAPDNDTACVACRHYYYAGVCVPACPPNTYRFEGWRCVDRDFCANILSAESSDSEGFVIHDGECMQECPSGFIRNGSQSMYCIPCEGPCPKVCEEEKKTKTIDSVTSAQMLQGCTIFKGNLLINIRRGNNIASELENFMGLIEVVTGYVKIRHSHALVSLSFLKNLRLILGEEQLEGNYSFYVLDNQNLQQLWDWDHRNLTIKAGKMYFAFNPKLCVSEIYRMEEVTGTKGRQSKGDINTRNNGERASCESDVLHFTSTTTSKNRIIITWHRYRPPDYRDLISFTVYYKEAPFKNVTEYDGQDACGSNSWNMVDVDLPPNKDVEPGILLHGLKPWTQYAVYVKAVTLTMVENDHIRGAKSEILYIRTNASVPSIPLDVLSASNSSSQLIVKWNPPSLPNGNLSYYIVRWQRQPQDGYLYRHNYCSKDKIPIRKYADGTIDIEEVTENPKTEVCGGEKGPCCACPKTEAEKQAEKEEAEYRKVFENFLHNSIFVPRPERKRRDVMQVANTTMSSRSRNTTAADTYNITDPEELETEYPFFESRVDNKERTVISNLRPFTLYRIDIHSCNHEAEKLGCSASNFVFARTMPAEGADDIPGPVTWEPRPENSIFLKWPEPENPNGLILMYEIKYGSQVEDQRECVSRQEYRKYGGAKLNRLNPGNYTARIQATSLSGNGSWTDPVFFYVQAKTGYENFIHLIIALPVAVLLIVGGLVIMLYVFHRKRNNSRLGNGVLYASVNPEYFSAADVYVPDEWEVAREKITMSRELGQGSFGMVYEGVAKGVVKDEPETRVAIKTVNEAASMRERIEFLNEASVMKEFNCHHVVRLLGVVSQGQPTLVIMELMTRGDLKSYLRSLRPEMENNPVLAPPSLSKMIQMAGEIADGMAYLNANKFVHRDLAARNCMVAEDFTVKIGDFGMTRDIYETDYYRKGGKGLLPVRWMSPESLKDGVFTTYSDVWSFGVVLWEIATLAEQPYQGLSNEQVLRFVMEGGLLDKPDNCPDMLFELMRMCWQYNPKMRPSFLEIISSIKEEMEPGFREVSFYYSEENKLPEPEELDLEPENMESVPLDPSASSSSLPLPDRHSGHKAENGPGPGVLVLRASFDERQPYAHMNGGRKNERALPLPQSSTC
Sequence of 363 human kinases (including Aurora A/B/C) (Homo sapiens, UniProt Q13233) (Q13233 whole entry): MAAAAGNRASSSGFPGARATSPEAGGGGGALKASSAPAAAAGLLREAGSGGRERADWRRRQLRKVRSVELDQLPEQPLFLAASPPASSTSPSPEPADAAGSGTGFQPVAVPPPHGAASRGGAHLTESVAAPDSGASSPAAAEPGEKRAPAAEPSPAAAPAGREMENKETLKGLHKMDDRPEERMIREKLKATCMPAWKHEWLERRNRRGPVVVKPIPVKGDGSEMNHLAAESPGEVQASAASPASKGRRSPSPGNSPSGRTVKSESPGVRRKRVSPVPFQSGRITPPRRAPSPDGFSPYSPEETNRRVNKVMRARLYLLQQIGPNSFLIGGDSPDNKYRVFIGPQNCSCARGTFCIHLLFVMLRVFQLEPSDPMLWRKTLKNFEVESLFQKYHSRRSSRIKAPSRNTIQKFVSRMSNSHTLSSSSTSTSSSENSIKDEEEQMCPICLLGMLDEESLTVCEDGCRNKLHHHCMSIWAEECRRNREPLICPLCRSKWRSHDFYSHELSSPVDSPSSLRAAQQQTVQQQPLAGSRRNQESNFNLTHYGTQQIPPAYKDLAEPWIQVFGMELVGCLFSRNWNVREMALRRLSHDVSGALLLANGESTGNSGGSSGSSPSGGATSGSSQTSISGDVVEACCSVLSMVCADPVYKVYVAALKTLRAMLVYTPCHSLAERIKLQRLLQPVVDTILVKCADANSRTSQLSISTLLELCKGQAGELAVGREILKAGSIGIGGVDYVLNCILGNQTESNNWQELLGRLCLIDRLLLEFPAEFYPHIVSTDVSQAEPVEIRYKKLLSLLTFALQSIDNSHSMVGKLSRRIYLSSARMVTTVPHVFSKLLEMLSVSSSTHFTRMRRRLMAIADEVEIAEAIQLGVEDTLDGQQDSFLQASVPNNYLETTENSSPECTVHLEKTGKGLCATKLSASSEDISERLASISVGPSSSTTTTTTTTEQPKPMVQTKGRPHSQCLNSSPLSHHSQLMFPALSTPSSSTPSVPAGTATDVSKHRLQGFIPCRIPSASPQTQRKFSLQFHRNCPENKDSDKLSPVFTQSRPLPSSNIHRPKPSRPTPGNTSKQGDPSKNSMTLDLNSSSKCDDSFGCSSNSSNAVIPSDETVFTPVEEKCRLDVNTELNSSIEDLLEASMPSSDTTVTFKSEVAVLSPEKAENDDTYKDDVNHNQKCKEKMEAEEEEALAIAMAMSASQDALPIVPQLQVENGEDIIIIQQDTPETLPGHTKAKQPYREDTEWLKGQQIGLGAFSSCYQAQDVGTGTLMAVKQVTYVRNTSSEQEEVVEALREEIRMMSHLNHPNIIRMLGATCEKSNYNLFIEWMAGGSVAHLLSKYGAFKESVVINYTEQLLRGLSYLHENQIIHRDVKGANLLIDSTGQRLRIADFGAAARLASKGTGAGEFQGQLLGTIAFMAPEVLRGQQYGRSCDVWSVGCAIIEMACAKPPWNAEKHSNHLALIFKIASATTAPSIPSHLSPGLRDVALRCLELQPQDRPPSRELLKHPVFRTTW
Sequence of 363 human kinases (including Aurora A/B/C) (Homo sapiens, UniProt Q9HAZ1) (Q9HAZ1 whole entry): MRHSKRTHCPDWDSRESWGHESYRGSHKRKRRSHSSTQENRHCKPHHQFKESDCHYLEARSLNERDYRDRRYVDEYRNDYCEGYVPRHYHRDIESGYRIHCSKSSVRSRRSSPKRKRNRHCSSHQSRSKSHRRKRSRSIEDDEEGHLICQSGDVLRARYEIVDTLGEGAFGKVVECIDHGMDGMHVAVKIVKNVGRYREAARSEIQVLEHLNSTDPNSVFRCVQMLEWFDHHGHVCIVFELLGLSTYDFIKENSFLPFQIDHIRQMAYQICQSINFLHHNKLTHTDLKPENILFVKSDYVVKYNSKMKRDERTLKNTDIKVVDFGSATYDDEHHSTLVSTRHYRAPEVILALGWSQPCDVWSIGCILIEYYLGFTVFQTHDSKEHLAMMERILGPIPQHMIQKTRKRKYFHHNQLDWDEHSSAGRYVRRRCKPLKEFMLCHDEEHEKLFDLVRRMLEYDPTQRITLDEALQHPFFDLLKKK

O=C(O)[C@]1(Cc2cccc(Nc3nccs3)n2)CC[C@@H](Oc2cccc(Cl)c2F)CC1 [MK-5108]
remaining activity at 0.1 µM [1]: 81.1% | remaining activity at 0.5 µM ([1]; 500 nM): 43.9% | remaining activity at 0.1 µM [2]: 39.2% | remaining activity at 0.5 µM ([2]; 500 nM): 12.5% | remaining activity at 0.1 µM [3]: 89.9% | remaining activity at 0.5 µM ([3]; 500 nM): 103% | remaining activity at 0.1 µM [4]: 98.3% | remaining activity at 0.5 µM ([4]; 500 nM): 97.7% | remaining activity at 0.1 µM [5]: 95.7% | remaining activity at 0.5 µM ([5]; 500 nM): 86.7% | remaining activity at 0.1 µM [6]: 5.35% | remaining activity at 0.5 µM ([6]; 500 nM): 1.01% | remaining activity at 0.1 µM [7]: 84.3% | remaining activity at 0.5 µM ([7]; 500 nM): 105% | remaining activity at 0.1 µM [8]: 88.5% | remaining activity at 0.5 µM ([8]; 500 nM): 64.3% | remaining activity at 0.1 µM [9]: 104% | remaining activity at 0.5 µM ([9]; 500 nM): 87% | remaining activity at 0.1 µM [10]: 99.1% | remaining activity at 0.5 µM ([10]; 500 nM): 82% | remaining activity at 0.1 µM [11]: 113% | remaining activity at 0.5 µM ([11]; 500 nM): 34.7% | remaining activity at 0.1 µM [12]: 114% | remaining activity at 0.5 µM ([12]; 500 nM): 91.7% | remaining activity at 0.1 µM [13]: 106% | remaining activity at 0.5 µM ([13]; 500 nM): 101% | remaining activity at 0.1 µM [14]: 34.9% | remaining activity at 0.5 µM ([14]; 500 nM): 6.67% | remaining activity at 0.1 µM [15]: 90% | remaining activity at 0.5 µM ([15]; 500 nM): 104% | Number of kinases inhibited at >65% of control [16]: 75 kinases | Number of kinases inhibited at >65% of control (including the Aurora kinases) [16]: 32 kinases

O=C(c1cccc(Cl)c1F)N1CCN(Cc2cccc(Nc3nccs3)n2)CC1 [MK-8745]
% Enzyme Activity (relative to DMSO controls) ([1]; 500 nM): 65.00% | remaining activity at 0.5 µM ([1]; 500 nM): 66.7% | % Enzyme Activity (relative to DMSO controls) ([2]; 500 nM): 35.90% | remaining activity at 0.5 µM ([2]; 500 nM): 36.4% | % Enzyme Activity (relative to DMSO controls) ([3]; 500 nM): 97.46% | remaining activity at 0.5 µM ([3]; 500 nM): 97.7% | % Enzyme Activity (relative to DMSO controls) ([4]; 500 nM): 99.31% | remaining activity at 0.5 µM ([4]; 500 nM): 100% | % Enzyme Activity (relative to DMSO controls) ([5]; 500 nM): 49.53% | remaining activity at 0.5 µM ([5]; 500 nM): 49.7% | % Enzyme Activity (relative to DMSO controls) ([6]; 500 nM): 18.29% | remaining activity at 0.5 µM ([6]; 500 nM): 19% | % Enzyme Activity (relative to DMSO controls) ([7]; 500 nM): 103.20% | remaining activity at 0.5 µM ([7]; 500 nM): 104% | % Enzyme Activity (relative to DMSO controls) ([8]; 500 nM): 101.78% | remaining activity at 0.5 µM ([8]; 500 nM): 102% | % Enzyme Activity (relative to DMSO controls) ([9]; 500 nM): 100.17% | remaining activity at 0.5 µM ([9]; 500 nM): 101% | % Enzyme Activity (relative to DMSO controls) ([10]; 500 nM): 90.90% | remaining activity at 0.5 µM ([10]; 500 nM): 93.3% | % Enzyme Activity (relative to DMSO controls) ([11]; 500 nM): 91.32% | remaining activity at 0.5 µM ([11]; 500 nM): 91.5% | % Enzyme Activity (relative to DMSO controls) ([12]; 500 nM): 103.85% | remaining activity at 0.5 µM ([12]; 500 nM): 107% | % Enzyme Activity (relative to DMSO controls) ([13]; 500 nM): 102.33% | remaining activity at 0.5 µM ([13]; 500 nM): 105% | % Enzyme Activity (relative to DMSO controls) ([14]; 500 nM): 57.02% | remaining activity at 0.5 µM ([14]; 500 nM): 59.9% | % Enzyme Activity (relative to DMSO controls) ([15]; 500 nM): 102.30% | remaining activity at 0.5 µM ([15]; 500 nM): 102% | Kinases inhibited at >65% of control ([16]; 500 nM): Aurora A, AXL, BRK, DDR1, EphA6, GSK3α/β, IRAK1, JNK1, LKB1, ROS1, Trk A/B/C, TYRO3, YES | Number of kinases inhibited at >65% of control ([16]; 500 nM): 16 kinases | % Enzyme Activity (relative to DMSO controls) ([16]; LYN B, 500 nM): 85.04% and 84.52% | % Enzyme Activity (relative to DMSO controls) ([16]; PKCb2, 500 nM): 98.11% and 97.15% | % Enzyme Activity (relative to DMSO controls) ([16]; PKG1b, 500 nM): 109.42% and 102.59%

CCn1cc(-c2ccnc3[nH]c(-c4cccc(CN(C)C)c4)cc23)c(-c2ccc(NC(=O)N(C)C)cc2)n1 [GSK1070916]
remaining activity at 0.1 µM [1]: 97.9% | remaining activity at 0.1 µM [2]: 74.6% | remaining activity at 0.1 µM [3]: 102% | remaining activity at 0.1 µM [4]: 101% | remaining activity at 0.1 µM [5]: 94.7% | remaining activity at 0.1 µM [6]: 122% | remaining activity at 0.1 µM [7]: 110% | remaining activity at 0.1 µM [8]: 97.6% | remaining activity at 0.1 µM [9]: 91.8% | remaining activity at 0.1 µM [10]: 95.6% | remaining activity at 0.1 µM [11]: 89% | remaining activity at 0.1 µM [12]: 106% | remaining activity at 0.1 µM [13]: 111% | remaining activity at 0.1 µM [14]: 70.3% | remaining activity at 0.1 µM [15]: 103% | Kinases inhibited ≥65% of control ([16]; 100 nM, 363 human kinases, [ATP] ~ Km(ATP)): Aurora A and B as well as DDR1
